Common to all, as to experiment: inhibition of tumour cell growth, NCI panel, 48 h
The test system of assay [1] is CAKI-1.
The test system of assay [2] is Malme-3M.
Assay [3] has as its system PC-3.
Assay [4] deals with SK-MEL-5.
In assay [5] the test system is KM12.
In assay [6] the test system is SNB-19.
For assay [7], the system named is Hs-578T.
Assay [8] concerns MDA-MB-435.
For assay [9], the system named is MDA-MB-231.
The subject of assay [10] is HOP-62.
Assay [11] has as its system NCI-H522.
The subject of assay [12] is HCC 2998.
Assay [13] has as its system MDA-N.
For assay [14], the system named is BT-549.
The subject of assay [15] is A549.
The test system of assay [16] is MOLT-4.
Assay [17] has as its system TK-10.
Assay [18] has as its system CCRF-CEM.
For assay [19], the system named is EKVX.
In assay [20] the test system is 786-0.

Experimental findings from ChEMBL document CHEMBL1201862, “PubChem BioAssay data set” (2004) are described below.

Structures are written as SMILES.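 How tested: cells in 96-well plates exposed to compound for 48 hours at five concentrations. GI50 marks 50% less growth.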 The source made the active and inactive calls. Rule as the data show it: active = GI50 up to about 1.1 µM and inactive = higher. Where a SMILES comes first, the peptide text is derived from it. [ ]: non-standard residue; d: D form. The star is where a group is joined. Bn2Val = CC(C)[C@@H](C(=O)*)N(Cc1ccccc1)Cc1ccccc1; NHPiperonyl = c1cc2c(cc1CN*)OCO2; NMeV = CN[C@H](C(=O)O)C(C)C; dNMeA = CN[C@H](C)C(=O)O

In the case of `O=C1c2ccccc2C(=O)c2c1ccc1conc21`, the GI50 is 4.22 µM (inactive) in assay [1]; 2.48 µM (inactive) in assay [2]; 1.48 µM (inactive) in [3]; 1.92 µM (inactive) in [4]; 3.24 µM (inactive) in assay [5]; 5.48 µM (inactive) in assay [6]. Also, the GI50 in assay [7] is 8.93 µM (inactive); in [8], 0.605 µM (active); in assay [9] it was 0.221 µM (active); in assay [10] it was 4.3 µM (inactive); in assay [11], 1.7 µM (inactive); in assay [12], 15.8 µM (inactive). The GI50 was 0.392 µM (active) in assay [13]; 1.91 µM (inactive) in assay [14]; 4.95 µM (inactive) in assay [15]; 0.632 µM (active) in assay [16]; 6.44 µM (inactive) in assay [17]; 1.04 µM (active) in [18]. Also, the GI50 was 2.08 µM (inactive) in [19] and 2.75 µM (inactive) in [20].
Take `NC(CSCc1ccccc1)C(=O)O` (stereo unspecified): the GI50 in assay [1], in assay [2], in assay [3], in assay [4], in assay [5] and in assay [6] was > 100 µM (inactive) each time. Also, the GI50 in assay [7], in assay [8], in assay [9], in [10], in assay [11] and in assay [12] was > 100 µM (inactive) throughout. Also, the GI50 in assay [13], in [14], in [15], in [17], in [18] and in assay [19] was > 100 µM (inactive) in each case. Moreover, in assay [20], the GI50 was > 100 µM (inactive).
Regarding `COc1cccc(C=C2N=C(c3ccccc3)N(n3c(-c4ccccc4)nc4ccccc4c3=O)C2=O)c1`, the GI50 was 41.2 µM (inactive) in [1]; > 100 µM (inactive) in assay [2]; 41.2 µM (inactive) in assay [3]; 34.8 µM (inactive) in assay [4]; 37.9 µM (inactive) in assay [5]; 64.6 µM (inactive) in [6]. Besides, the GI50 in assay [7] is 48.2 µM (inactive); in assay [8] it was > 100 µM (inactive); in assay [9] it was 57.9 µM (inactive); in assay [10] it was 85.1 µM (inactive); in assay [11], 18.3 µM (inactive); in assay [12], 64.6 µM (inactive). Also, the GI50 in assay [13] is 48.3 µM (inactive); in assay [14], > 100 µM (inactive); in assay [15], 43.7 µM (inactive); in [16] it was 30.3 µM (inactive); in [17] it was > 100 µM (inactive); in assay [18], 38.7 µM (inactive). In addition, the GI50 was 43.6 µM (inactive) in assay [19] and 83.4 µM (inactive) in [20].
Take `Cc1c(CCOC=O)c(=O)[nH]c2nncn12`: the GI50 in assay [1] is > 10 µM (inactive); in assay [2], > 100 µM (inactive); in [3] it was > 100 µM (inactive); in assay [4] it was > 100 µM (inactive); in [5] it was > 100 µM (inactive); in assay [6], > 100 µM (inactive). In addition, the GI50 in [7], in assay [8], in [9], in assay [10], in assay [11] and in assay [12] was > 100 µM (inactive) throughout. The GI50 in [13], in [14], in [15], in assay [16], in assay [17] and in assay [18] was > 100 µM (inactive) each time. In addition, the GI50 in [19] and in assay [20] was > 100 µM (inactive) each time.
Turning to `CCCCC(=O)NC1(c2cc3ccccc3s2)CCCCC1`, the GI50 in assay [1], in assay [2], in assay [3], in assay [4], in assay [5] and in assay [6] was > 100 µM (inactive) throughout. Moreover, the GI50 in assay [7], in assay [8], in assay [9], in assay [10], in assay [11] and in assay [12] was > 100 µM (inactive) in each case. The GI50 in assay [13] is > 100 µM (inactive); in assay [14], > 100 µM (inactive); in [15], > 100 µM (inactive); in [17], > 100 µM (inactive); in [18], 19.4 µM (inactive); in [19] it was > 100 µM (inactive). The GI50 in [20] is > 100 µM (inactive).
With `CC1C(OC2O[C@@H]3O[C@@]4(C)CC[C@H]5[C@H](C)CC[C@@H](C2C)[C@@]35O4)O[C@@H]2O[C@@]3(C)CC[C@H]4[C@H](C)CC[C@@H]1[C@@]24O3` (stereo partly specified), the GI50 in assay [1], in assay [2], in assay [3], in assay [4], in assay [5] and in assay [6] was > 50 µM (inactive) throughout. In addition, the GI50 in [7] is > 50 µM (inactive); in assay [8], > 50 µM (inactive); in assay [9], > 50 µM (inactive); in assay [10], > 50 µM (inactive); in assay [11], 19.3 µM (inactive); in assay [12], > 50 µM (inactive). Moreover, the GI50 in [13], in [14], in assay [15], in assay [16], in [17] and in assay [18] was > 50 µM (inactive) throughout. Also, the GI50 in assay [19] and in assay [20] was > 50 µM (inactive) in each case.
As to `CC(=O)OC1=NN=C2COC(c3ccccc3OC(C)=O)=NN2C1`, the GI50 in assay [1] was > 50 µM (inactive); in [2] it was 27.2 µM (inactive); in assay [3], 20.1 µM (inactive); in assay [4], 9.75 µM (inactive); in [5], 31.5 µM (inactive); in assay [6] it was > 50 µM (inactive). The GI50 in [7] was 24 µM (inactive); in [8], > 50 µM (inactive); in assay [9], > 50 µM (inactive); in [10], > 50 µM (inactive); in assay [11] it was > 50 µM (inactive); in assay [12], > 50 µM (inactive). Besides, the GI50 in assay [13], in assay [14], in assay [15], in assay [17], in [18] and in assay [19] was > 50 µM (inactive) each time. Also, in assay [20], the GI50 is 24.4 µM (inactive).
Regarding `N=c1oc2ccccc2cc1-c1nc2ccccc2[nH]1`, the GI50 was 43.9 µM (inactive) in assay [1]; 24.9 µM (inactive) in assay [2]; 78 µM (inactive) in assay [3]; 20.8 µM (inactive) in [4]; 30.8 µM (inactive) in [5]; 98.9 µM (inactive) in assay [6]. Also, the GI50 in assay [7] was 41 µM (inactive); in [8], 15.5 µM (inactive); in assay [9], 22.4 µM (inactive); in assay [10], 53 µM (inactive); in [11], 1.89 µM (inactive); in [12], 71.3 µM (inactive). For the same compound, the GI50 is 17.3 µM (inactive) in assay [13]; 27.5 µM (inactive) in assay [14]; 74.1 µM (inactive) in assay [15]; 10.1 µM (inactive) in assay [16]; 17.7 µM (inactive) in [17]; 14 µM (inactive) in assay [18]. Also, the GI50 in assay [19] is 18.2 µM (inactive); in assay [20], 15.4 µM (inactive).
Take `CCC1=NC(N/N=C/c2ccco2)=N/C1=C\c1ccco1`: the GI50 in [1], in assay [2], in assay [3], in [4], in assay [5] and in [6] was > 100 µM (inactive) in each case. The GI50 in assay [7] is > 100 µM (inactive); in assay [8] it was 52 µM (inactive); in assay [9], > 100 µM (inactive); in assay [10], > 100 µM (inactive); in [11] it was > 100 µM (inactive); in [12], > 100 µM (inactive). In addition, the GI50 in assay [13], in assay [14], in assay [15], in assay [16], in [17] and in [18] was > 100 µM (inactive) throughout. Besides, the GI50 in [19] and in assay [20] was > 100 µM (inactive) each time.
With `CC(C)[C@H](NC(=O)[C@H](C(C)C)N(Cc1ccccc1)Cc1ccccc1)C(=O)N(C)[C@H](C(=O)N1CCC[C@H]1C(=O)N(C)[C@H](C)C(=O)NCc1ccc2c(c1)OCO2)C(C)C` (Bn2Val-V[NMeV]P[dNMeA]-NHPiperonyl), the GI50 in assay [1] was 19.9 µM (inactive); in assay [2] it was 21.9 µM (inactive); in assay [3] it was 3.35 µM (inactive); in [5] it was 4.83 µM (inactive); in [6], 18.2 µM (inactive); in assay [7], 39.1 µM (inactive). Moreover, the GI50 is 17.2 µM (inactive) in assay [8]; 6.56 µM (inactive) in [9]; 29.9 µM (inactive) in assay [10]; 14.7 µM (inactive) in [11]; 3.23 µM (inactive) in [12]; 12.1 µM (inactive) in assay [13]. Besides, the GI50 in assay [14] was 13.2 µM (inactive); in assay [15], 15.6 µM (inactive); in assay [16], 2.73 µM (inactive); in assay [17], 18.3 µM (inactive); in [18] it was 2.56 µM (inactive); in assay [19] it was 4.98 µM (inactive). Besides, the GI50 in [20] was 13.6 µM (inactive).
